Data on 21 substances can be found in patent publication US4962277A, “Deletion analogues of magainin peptides” (priority 1988, dated 1990).

One data set deals with human red blood cells. As to conditions: pH 7.
A further data set has as its system Staphylococcus epidermis. In words: Antimicrobial assay: growth inhibition in 96-well plates, O.D.620 at six hours. Format: cell-based. The following applies: for Effective Growth Inhibition Conc., S. epidermis: concentration at which the reported % inhibition (greater than 80%) was found, 100% at next higher concentration if below 100%; for % Inhibit, S. epidermis: 1.0×10^6 CFU/ml. As to the method: (§1) Antimicrobial assays were carried out in 96 -well tissue culture plates. Each well was incubated with a given microorganism suspended in LB medium (Escherichia coli, and Staphylococcus epidermis or YTB medium (Candida albicans). Upon the addition of the peptides or their deletion analogues, (dissolved in 1×PBS, pH 7.0) each well contained a final cell density of 1.0×10^6 colony forming units (CFU)/ml. The final peptide concentrations used were 100 μg/ml., 75.0 μg/ml, 50.0 μg/ml, 25 μg/ml, and 10 μg/ml Concentrations of up to 500 μg/ml, however, were employed against C. albicans.
(§2) Addition of peptides to the wells was defined as time zero. At six hours, the plates were placed in a Titertek Multiskan apparatus and the O.D.620 determined. The plates as well as the initial innoculum were incubated at 37° C.
(§3) Five wells per plate contained media alone. while five others contained medium plus cells. These controls were used to eliminate the possibility of media contamination while providing a measure of uninhibited growth of the microorganisms. The measurements of 1/(change in optical in density) for the wells containing either the peptides or their deletion analogues in the above-mentioned varying concentrations with the colony forming units of E. coli or S. epidermis are shown in FIGS. 1 and 2. FIG. 1 is a graph of the measurements of 1/(change in optical density) for wells containing Magainin I or Magainin II peptides or their deletion analogues and E. coli. FIG. 1a is a graph pertaining to Magainin I (indicated by X) and its deletion analogues. (The deletion analogue wherein amino acid 23 omitted was not tested). FIG. 1b is a graph pertaining to Magainin II (indicated by X) and its deletion analogues. In both graphs, Z is a control of medium plus cells.
FIG. 2 is a graph of the measurements of 1/(change in optical density) for wells containing Magainin I or Magainin II peptides or their deletion analogues and S. epidermis. FIG. 2a is a graph pertaining to Magainin I (indicated by X) and its deletion analogues. (The deletion analogue wherein amino acid 23 was deleted was not tested.) FIG. 2b is a graph pertaining to Magainin II (indicated by X) and its deletion analogues. In both graphs, Z is a control of medium plus cells. The measurements of 1/(change in optical density) as measured for the Magainin I and Magainin II peptides and their deletion analogues can be correlated to a measurement of their effectivness against E. coli and S. epidermis.
(§4) The degree of peptide activity was determined by comparing the deletion analogs with uninhibited growth of the control cells over a six-hour period. […] As listed in Table 1, M1C is Magainin I, C-terminal carboxyl carboxy-terminated), whereas M2A, is Magainin II, C-terminal amide (amide-terminated). The letter and number code after each M1C or M2A peptide indicates the amino acid residue deleted from the particular deletion analogue of Magainin I carboxY-terminated) or Magainin II (amide-terminated).

For another data set, the system named is Escherichia coli. Type of data set: cell-based. As to conditions: six hours; for Effective Growth Inhibition Conc., E. coli: concentration at which the reported % inhibition (greater than 80%) was found, 100% at next higher concentration if below 100%; for % Inhibit, E. coli: 1.0×10^6 CFU/ml. The method, then:
as §1, §2, §3, §4

In another data set the test system is E. coli. Description: Kinetics of microbial killing. Format: cell-based. The following applies: peptide 25 μg/ml; E. coli 1.0×10^6 CFU/ml; 37° C. The method, then:
Dissolved peptide preparations of amide-terminated Magainin II, amide-terminated Magainin II with glycine (amino acid 18) deleted, and amide-terminated Magainin II with glutamic acid (amino acid 19) deleted were added to test tubes containing E. coli (1.0×10^6 CFU/ml) to a final peptide concentration of 25 μg/ml. At the time points of 15, 30, 45, and 60 minutes after the addition, indicated in FIG. 3, 10.0 µl were removed from each tube and sequentially diluted by a factor of ten four times in LB medium. The number of bacteria at each time point was determined by plating 10.0 μl of the 10^-2, 10^-3, and 10^-4 dilutions. The log of the number of bacteria from these dilutions at each time point was determined, and was plotted on the graph in FIG. 3. Two controls, one with medium alone and one with no peptides were both incubated along with the tubes containing cells and peptides. The tubes as well as the agar plates used were incubated at 37° C.

Like-named read-outs stand apart in the source and are kept apart here. No end group written: not given here.

Consider GIGKFLHSAGKFGKAFVGEMKS [M1C-I^20], for which, in the data set with human red blood cells, the “% Hemolysis of Human Red Blood Cells” value is listed as 1%.

“GIGKFLHSAKKFGKAFVGEIMNS-NH2 [Peptide M2A, reference compound]”: the “Effective Growth Inhibition Conc., S. epidermis” value with Staphylococcus epidermis stood at 25 µg/mL. For the same substance, in the data set on Staphylococcus epidermis (peptide 25 μg/ml), the “% Inhibit, S. epidermis” value was found to be 93%. Moreover, the “Effective Growth Inhibition Conc., E. coli” value with Escherichia coli was 25 µg/mL. For the same substance, the “% Inhibit, E. coli” value with Escherichia coli (peptide 25 μg/ml) came out at 100%. Also, the “time until all E. coli cells were killed after addition of the peptide” value (from here on “time until all E. coli cells were killed”) with E. coli is recorded as “much slower”. Also, the “% Hemolysis of Human Red Blood Cells” value in the data set on human red blood cells is given as 4%.

For GIGKFLHSAKKFGKAFVGIMNS-NH2 [M2A-E^19], the “Effective Growth Inhibition Conc., S. epidermis” value in the data set with Staphylococcus epidermis amounted to 10 µg/mL. For the same substance, the “% Inhibit, S. epidermis” value with Staphylococcus epidermis (peptide 10 μg/ml) is 89%. For the same substance, the “Effective Growth Inhibition Conc., E. coli” value with Escherichia coli came to 10 µg/mL. Besides, in the data set on Escherichia coli (peptide 10 μg/ml), the “% Inhibit, E. coli” value is on record as 92%. Further, the “time until all E. coli cells were killed” value with E. coli is no more than 15 min. In the data set on human red blood cells, the “% Hemolysis of Human Red Blood Cells” value is 0%.

For the substance GIGKFLHSAKKFGKAFVEIMNS-NH2 [M2A-G^18], the “Effective Growth Inhibition Conc., S. epidermis” value in the data set on Staphylococcus epidermis stood at 10 µg/mL. The “% Inhibit, S. epidermis” value with Staphylococcus epidermis (peptide 10 μg/ml) came to 89%; in the data set on Staphylococcus epidermis (peptide 50 μg/ml) it was 80%; with Staphylococcus epidermis (peptide 100 μg/ml), 0%. Also, the results for the “Effective Growth Inhibition Conc., E. coli” value with Escherichia coli, in the data set on Escherichia coli (listed as M2A-G^3) and in the data set with Escherichia coli (listed as M2A-G^13) were 10 µg/mL, 100 µg/mL and 25 µg/mL, respectively. Moreover, the “% Inhibit, E. coli” value is 94% with Escherichia coli (peptide 10 μg/ml); 89% with Escherichia coli (peptide 25 μg/ml); 0% with Escherichia coli (peptide 100 μg/ml); 93% with Escherichia coli (peptide 100 μg/ml, listed as M2A-G^3). Besides, the “time until all E. coli cells were killed” value with E. coli is no more than 15 min.

Take “GIGKFLHSAGKFGKAFVGEIMKS [Peptide M1C, Magainin I, reference compound]”: the “% Hemolysis of Human Red Blood Cells” value in the data set on human red blood cells was 2%.

In the case of GIGKFLHSAKKFGKFVGEIMNS-NH2 [M2A-A^15], the “Effective Growth Inhibition Conc., S. epidermis” value in the data set with Staphylococcus epidermis worked out at 25 µg/mL. Also, the “% Inhibit, S. epidermis” value was determined as 90% in the data set on Staphylococcus epidermis (peptide 25 μg/ml) and 0% in the data set on Staphylococcus epidermis (peptide 100 μg/ml). The “Effective Growth Inhibition Conc., E. coli” value in the data set on Escherichia coli worked out at 10 µg/mL; in the data set with Escherichia coli (listed as M2A-A^9), 75 µg/mL. Moreover, the results for the “% Inhibit, E. coli” value with Escherichia coli (peptide 10 μg/ml) and with Escherichia coli (peptide 75 μg/ml) were 95% and 82%, respectively.

On to GIGKFHSAKKFGKAFVGEIMNS-NH2 [M2A-L^6], for which the “% Inhibit, S. epidermis” value in the data set on Staphylococcus epidermis (peptide 100 μg/ml) stood at 0%. In the data set on Escherichia coli (peptide 100 μg/ml), the “% Inhibit, E. coli” value amounted to 0%. For the same substance, in the data set on human red blood cells, the “% Hemolysis of Human Red Blood Cells” value amounted to 1%.

Turning to GIGKFLHSAGKFGKAFVGEIKS [M1C-M^21], the “% Hemolysis of Human Red Blood Cells” value in the data set with human red blood cells is 1%.

Regarding GIGKFLHSAKKFGKAFVGEIMS-NH2 [M2A-N^22], the “Effective Growth Inhibition Conc., S. epidermis” value in the data set with Staphylococcus epidermis came to 75 µg/mL. Moreover, the “% Inhibit, S. epidermis” value in the data set with Staphylococcus epidermis (peptide 75 μg/ml) was 100%. For the same substance, the “Effective Growth Inhibition Conc., E. coli” value in the data set with Escherichia coli came out at 25 µg/mL. Also, the “% Inhibit, E. coli” value in the data set on Escherichia coli (peptide 25 μg/ml) was determined as 100%. In addition, the “% Hemolysis of Human Red Blood Cells” value in the data set on human red blood cells is listed as 2%.

Turning to GIGKFLHSAKKFGKAVGEIMNS-NH2 [M2A-F^16], the “% Inhibit, S. epidermis” value with Staphylococcus epidermis (peptide 100 μg/ml) is recorded as 0%. Further, the “Effective Growth Inhibition Conc., E. coli” value in the data set with Escherichia coli was determined as 100 µg/mL. In addition, the “% Inhibit, E. coli” value in the data set with Escherichia coli (peptide 100 μg/ml) came out at 92%; with Escherichia coli (peptide 100 μg/ml, listed as M2A-F^5), 0%; with Escherichia coli (peptide 100 μg/ml, listed as M2A-F^12), 0%. The “% Hemolysis of Human Red Blood Cells” value in the data set on human red blood cells is recorded as 1%.

Regarding GIGKFLHSAKKFGKAFVGEINS-NH2 [M2A-M^21], the “Effective Growth Inhibition Conc., S. epidermis” value in the data set on Staphylococcus epidermis was determined as 75 µg/mL. Moreover, the “% Inhibit, S. epidermis” value in the data set on Staphylococcus epidermis (peptide 75 μg/ml) turned out to be 90%. In addition, the “Effective Growth Inhibition Conc., E. coli” value with Escherichia coli was determined as 25 µg/mL. Besides, the “% Inhibit, E. coli” value in the data set on Escherichia coli (peptide 25 μg/ml) is recorded as 95%. For the same substance, in the data set on human red blood cells, the “% Hemolysis of Human Red Blood Cells” value was found to be 0%.

Take GIGKFLSAKKFGKAFVGEIMNS-NH2 [M2A-H^7]: the “% Inhibit, S. epidermis” value in the data set on Staphylococcus epidermis (peptide 100 μg/ml) was found to be 0%. Further, the “Effective Growth Inhibition Conc., E. coli” value in the data set on Escherichia coli stood at 100 µg/mL. In addition, in the data set on Escherichia coli (peptide 100 μg/ml), the “% Inhibit, E. coli” value came to 90%. Moreover, the “% Hemolysis of Human Red Blood Cells” value in the data set with human red blood cells is reported as 0%.

With “GIGKFLHSAKKFGKAFVGEIMNS [Peptide M2-Carboxy, Magainin II, reference compound]”, the “% Inhibit, E. coli” value in the data set on Escherichia coli (peptide 50 μg/ml) is reported as 100%.

For the substance GIGKFHSAGKFGKAFVGEIMKS [M1C-L^6], the “% Hemolysis of Human Red Blood Cells” value in the data set with human red blood cells is listed as 0%.

Turning to GIGKFLHSAKKFGKAFVGEIMN-NH2 [M2A-S^23], the “% Inhibit, S. epidermis” value in the data set with Staphylococcus epidermis (peptide 100 μg/ml) amounted to 0%. In addition, the “Effective Growth Inhibition Conc., E. coli” value in the data set with Escherichia coli is 25 µg/mL; with Escherichia coli (listed as M2A-S^8), 75 µg/mL. Besides, the “% Inhibit, E. coli” value with Escherichia coli (peptide 25 μg/ml) came out at 100%; in the data set on Escherichia coli (peptide 75 μg/ml) it was 90%.

Turning to GIGKFLHSAKKFGKAFVGEMNS-NH2 [M2A-I^20], the “% Inhibit, S. epidermis” value in the data set on Staphylococcus epidermis (peptide 100 μg/ml) is given as 0%. Moreover, in the data set on Escherichia coli, the “Effective Growth Inhibition Conc., E. coli” value is 25 µg/mL. Also, the “% Inhibit, E. coli” value in the data set with Escherichia coli (peptide 25 μg/ml) is 84%; in the data set with Escherichia coli (peptide 100 μg/ml) it was 0%. The “% Hemolysis of Human Red Blood Cells” value in the data set on human red blood cells is reported as 0%.

Consider GIGKFLHSAGKFGKAFGEIMKS [M1C-V^17], for which, in the data set with human red blood cells, the “% Hemolysis of Human Red Blood Cells” value came out at 1%.

Consider GIGKFLHSAGKFGKAFVGIMKS [M1C-E^19], for which the “% Hemolysis of Human Red Blood Cells” value with human red blood cells was 1%.

Consider GIGKFLSAGKFGKAFVGEIMKS [M1C-H^7], for which the “% Hemolysis of Human Red Blood Cells” value in the data set with human red blood cells worked out at 0%.

GIGKFLHSAKKFGKAFGEIMNS-NH2 [M2A-V^17]: the “% Inhibit, S. epidermis” value in the data set on Staphylococcus epidermis (peptide 100 μg/ml) worked out at 0%. The “Effective Growth Inhibition Conc., E. coli” value in the data set on Escherichia coli turned out to be 50 µg/mL. Moreover, the “% Inhibit, E. coli” value in the data set with Escherichia coli (peptide 50 μg/ml) amounted to 87%. Further, the “% Hemolysis of Human Red Blood Cells” value with human red blood cells came to 0%.

With GIGKFLHSAGKFGKAFVGEIMK [M1C-S^23], the “% Hemolysis of Human Red Blood Cells” value with human red blood cells was 0%.
